Where “and” joins values, the source holds several entries; their conditions need not be identical. Equal entries are not always repeated. Where two headings read alike, the source gives them in different places.
Columns and labels:
Cls = biological target: T1, Cls (Homo sapiens, UniProt P09871); assay: Anti-Cl esterase activity, Cls (ATEE hydrolysis, method of Okamura et al.); assay type: biochemical; conditions: read-out: Anti-C1 activity, Cls (ID50)
T1 sequence (P09871 438-688 limits assumed): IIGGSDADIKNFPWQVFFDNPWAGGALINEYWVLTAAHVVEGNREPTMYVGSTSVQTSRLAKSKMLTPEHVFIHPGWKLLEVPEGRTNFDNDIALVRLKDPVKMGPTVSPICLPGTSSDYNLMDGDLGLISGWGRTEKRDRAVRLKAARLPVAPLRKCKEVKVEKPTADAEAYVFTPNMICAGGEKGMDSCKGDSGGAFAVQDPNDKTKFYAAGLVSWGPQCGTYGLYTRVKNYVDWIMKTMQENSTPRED
T1 sequence (P09871 16-437 partner limits assumed): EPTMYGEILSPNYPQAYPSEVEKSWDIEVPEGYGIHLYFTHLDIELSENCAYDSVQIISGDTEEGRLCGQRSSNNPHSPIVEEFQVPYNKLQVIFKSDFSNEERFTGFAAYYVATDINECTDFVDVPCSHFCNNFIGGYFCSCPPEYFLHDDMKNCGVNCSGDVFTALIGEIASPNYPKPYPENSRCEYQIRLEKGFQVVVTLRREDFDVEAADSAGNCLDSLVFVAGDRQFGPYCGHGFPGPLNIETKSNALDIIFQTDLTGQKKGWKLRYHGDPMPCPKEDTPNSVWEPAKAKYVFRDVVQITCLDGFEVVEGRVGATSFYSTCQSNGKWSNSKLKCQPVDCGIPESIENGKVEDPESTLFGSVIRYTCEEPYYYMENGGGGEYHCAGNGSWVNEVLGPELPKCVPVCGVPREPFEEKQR
Method: (§1) The anti-Cl esterase (Clr, Cls) activity was determined according to the method of Okamura et al. [K. Okamura, M. Muramatsu and S. Fujii, Biochem. Biophys. Acta, 295, 252-257 (1973)]. The inhibition of complement mediated hemolysis (percent) was determined according to the method of Baker et al. [B. R. Baker and E. H. Erickson, J. Med. Chem., 12, 408-414 (1969)]. The figures in Table 2 have the following meanings:
Cls: Molar concentration of the test compound which inhibits 50% of the ability of Cls to hydrolyse ATEE (acetyltyrosin ethyl ester) (ID50).

kallikrein = assay: Enzyme inhibition, TAME hydrolysis, kallikrein (method of Muramatsu et al.); assay type: biochemical; conditions: for IC50: read-out: ID50, kallikrein
Method: (§2) The enzyme inhibitory activity was determined according to the method of Muramatsu et al. [M. Muramatsu, T. Onishi, S. Makino, Y. Hayashi and S. Fujii, J. Biochem., 58, 214 (1965)]. The data summarized in Table 1 are expressed in terms of molar concentration (ID50) of the test compound which inhibits 50% of the activity of each enzyme to hydrolyze TAME (tosylarginine methyl ester).

thrombin = thrombin (Bos taurus, UniProt P00735); assay: Enzyme inhibition, TAME hydrolysis, thrombin (method of Muramatsu et al.); assay type: biochemical
Method: as §2

Clr = biological target: T2, Clr (Homo sapiens, UniProt P00736); assay: Anti-Cl esterase activity, Clr (AAME hydrolysis, method of Okamura et al.); assay type: biochemical; conditions: read-out: Anti-C1 activity, Clr (ID50)
T2 sequence (P00736 464-705 limits assumed): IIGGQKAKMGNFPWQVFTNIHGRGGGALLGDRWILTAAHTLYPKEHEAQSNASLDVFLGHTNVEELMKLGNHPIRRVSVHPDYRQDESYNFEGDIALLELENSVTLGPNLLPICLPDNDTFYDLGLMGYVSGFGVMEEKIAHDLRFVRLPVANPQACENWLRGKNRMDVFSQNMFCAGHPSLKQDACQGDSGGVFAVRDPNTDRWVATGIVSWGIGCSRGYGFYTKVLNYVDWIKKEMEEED
T2 sequence (P00736 18-463 partner limits assumed): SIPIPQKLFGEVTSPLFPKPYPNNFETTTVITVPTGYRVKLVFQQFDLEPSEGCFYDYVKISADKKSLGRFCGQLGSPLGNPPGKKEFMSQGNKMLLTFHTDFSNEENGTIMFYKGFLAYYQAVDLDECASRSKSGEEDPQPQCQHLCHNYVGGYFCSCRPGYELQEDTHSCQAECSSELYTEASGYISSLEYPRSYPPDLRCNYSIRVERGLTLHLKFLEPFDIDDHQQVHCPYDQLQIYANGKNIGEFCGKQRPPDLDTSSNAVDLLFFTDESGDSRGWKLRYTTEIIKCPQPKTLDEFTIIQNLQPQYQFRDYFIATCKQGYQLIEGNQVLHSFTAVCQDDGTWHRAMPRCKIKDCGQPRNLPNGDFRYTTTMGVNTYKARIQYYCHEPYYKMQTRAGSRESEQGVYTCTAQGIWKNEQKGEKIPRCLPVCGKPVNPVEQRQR
Method: as §1
Clr: Molar concentration of the test compound which inhibits 50% of the ability of Clr to hydrolyse AAME (acetylarginin methyl ester) (ID50).

plasmin = plasmin (Homo sapiens, UniProt P00747); assay: Enzyme inhibition, TAME hydrolysis, plasmin (method of Muramatsu et al.); assay type: biochemical; conditions: read-out: ID50, plasmin
Sequence of plasmin (P00747 581-810 limits assumed): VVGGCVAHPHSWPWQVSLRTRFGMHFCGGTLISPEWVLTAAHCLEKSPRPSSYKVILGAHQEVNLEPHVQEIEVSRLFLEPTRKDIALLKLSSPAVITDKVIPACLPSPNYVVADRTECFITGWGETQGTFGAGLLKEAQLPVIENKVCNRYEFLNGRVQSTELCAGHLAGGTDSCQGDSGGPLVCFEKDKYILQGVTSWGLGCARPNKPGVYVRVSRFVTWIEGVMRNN
Sequence of plasmin (P00747 97-580 partner limits assumed): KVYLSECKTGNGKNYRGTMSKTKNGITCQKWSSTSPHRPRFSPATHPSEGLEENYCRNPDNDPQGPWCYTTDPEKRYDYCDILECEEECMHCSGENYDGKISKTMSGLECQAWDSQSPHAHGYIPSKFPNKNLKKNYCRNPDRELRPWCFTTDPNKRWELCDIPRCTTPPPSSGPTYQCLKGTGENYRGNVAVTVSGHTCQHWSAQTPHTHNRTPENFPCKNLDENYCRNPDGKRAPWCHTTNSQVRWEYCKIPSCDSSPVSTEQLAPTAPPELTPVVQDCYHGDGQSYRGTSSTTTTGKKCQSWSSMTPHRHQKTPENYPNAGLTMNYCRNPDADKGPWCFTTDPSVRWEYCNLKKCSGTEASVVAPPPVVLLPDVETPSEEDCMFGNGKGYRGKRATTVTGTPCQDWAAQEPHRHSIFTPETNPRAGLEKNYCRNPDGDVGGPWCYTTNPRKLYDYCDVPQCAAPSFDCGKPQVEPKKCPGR
Method: as §2

[1] = test system: complement mediated hemolysis; assay: Inhibition of complement mediated hemolysis (method of Baker et al.); assay type: cell-based
trypsin = biological target: T3, trypsin (Bos taurus, UniProt P00760); assay: Enzyme inhibition, TAME hydrolysis, trypsin (method of Muramatsu et al.); assay type: biochemical; conditions: for IC50: hydrolysis of TAME, read-out: ID50, trypsin
T3 sequence (P00760 24-246): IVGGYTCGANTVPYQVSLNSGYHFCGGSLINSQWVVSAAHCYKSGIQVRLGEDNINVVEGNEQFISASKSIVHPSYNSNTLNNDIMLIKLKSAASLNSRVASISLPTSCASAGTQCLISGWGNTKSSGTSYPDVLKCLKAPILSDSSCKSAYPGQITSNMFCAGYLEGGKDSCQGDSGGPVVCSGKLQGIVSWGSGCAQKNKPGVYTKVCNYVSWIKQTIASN
Method: as §2

[2] = Toxicity, lethal dose (LD50); conditions: mouse, in vivo
Forssman shock = assay: Forssman shock, time elapsed until death; assay type: in vivo, guinea pig; conditions: 5 minutes before hemolysin
Method: The experiment was performed according to the method of I. G. Offerness et al. [Biochem. Pharmacol., 27 (14), 1873-1878 (1978)]. Male Hartlay guinea pig of about 300 g in body weight was used. Each guinea pig of the control group was administered intravenously with 0.5 ml (minimum dose to cause the shock) of hemolysin (commercial hemolysin, 5,000 U as assayed by the method of Ogata) and the time elapsed until death was observed. For the test group, each guinea pig was administered intravenously with the test compound 5 minutes before the administration of hemolysin and the time (second) elapsed until death was observed.

SMILES	IC50 (Cls)	IC50 (kallikrein)	IC50 (thrombin)	IC50 (Clr)	IC50 (plasmin)	Inhibition of complement mediated hemolysis (%) ([1]; concentration 1 × 10^-4)	Inhibition of complement mediated hemolysis (%) ([1]; concentration 1 × 10^-5)	Inhibition of complement mediated hemolysis (%) ([1]; concentration 1 × 10^-6)	Inhibition of complement mediated hemolysis (%) ([1]; concentration 1 × 10^-7)	IC50 (trypsin)	LD50 ([2]; ip, read-out: LD50 Mouse IP)	LD50 ([2]; po, read-out: LD50 Mouse PO)	percentage inhibition, kallikrein (figure in parentheses) (kallikrein; 1×10^-5 M)	inhibition at 10 µM (trypsin; read-out: percentage inhibition, trypsin (figure in parentheses))	time elapsed until death, Average (Forssman shock; 1.0 mg/kg intravenously, average of 6, control average 428)	time elapsed until death (Forssman shock; 1.0 mg/kg intravenously, individual animals 1-6)	time elapsed until death / survival (Forssman shock; 3.0 mg/kg intravenously, individual animals 1-6, ditto mark = Survival)
N=C(N)c1ccc2cc(OC(=O)CCCCCNC(=O)OCc3ccccc3)ccc2c1 [Compound No. 16, 6-amidino-2-naphthyl ε-benzyloxycarbonylaminocaproate]	4 µM	40 µM	100 µM	4 µM	3 µM	92%	15%	0%	0%	10 µM	–	–	–	–	–	–	–
N=C(N)c1ccc2cc(OC(=O)C3CCCCC3)ccc2c1 [Compound No. 12, 6-amidino-2-naphthylcyclohexanecarboxylate]	3 µM	> 10 µM	40 µM	2 µM	10 µM	45%	10%	11%	0%	20 µM	–	–	–	–	–	–	–
CCCCCC(=O)Oc1ccc2cc(C(=N)N)ccc2c1 [compound 4, 6-amidino-2-naphthyl caproate]	4 µM	300 µM	3000 µM	5 µM	20 µM	83%	12%	5%	0%	20 µM	–	–	–	–	–	–	–
N=C(N)NCCCCCC(=O)Oc1ccc2cc(C(=N)N)ccc2c1 [Compound No. 18, 6-amidino-2-naphthyl ε-guanidinocaproate]	9 µM	> 10 µM	40 µM	70 µM	30 µM	92%	30%	3%	0%	10 µM	–	–	–	–	–	–	–
CC(=O)Oc1ccc2cc(C(=N)N)ccc2c1 [Compound No. 1, 6-amidino-2-naphthyl acetate]	20 µM	500 µM	400 µM	10 µM	200 µM	86%	15%	0%	0%	80 µM	200 mg/kg	2500 mg/kg	–	–	–	–	–
CC(C)CC(=O)Oc1ccc2cc(C(=N)N)ccc2c1 [Compound No. 3, 6-amidino-2-naphthyl isovalerate]	2 µM	500 µM	80 µM	2 µM	30 µM	95%	37%	0%	0%	30 µM	–	–	–	–	–	–	–
N=C(N)c1ccc2cc(OC(=O)[C@H]3CC[C@H](CN)CC3)ccc2c1 [Compound No. 20, 6-amidino-2-naphthyl trans-4-aminomethylcyclohexanecarboxylate]	4 µM	–	> 10 µM	5 µM	> 10 µM	100%	99%	80%	12%	–	175 mg/kg	2000 mg/kg	38%	28%	442 s	360 s and 365 s and 325 s and 620 s and 650 s	Survival
CCCC(=O)Oc1ccc2cc(C(=N)N)ccc2c1 [Compound No. 2, 6-amidino-2-naphthyl n-butyrate]	20 µM	700 µM	20 µM	9 µM	30 µM	96%	40%	1%	0%	20 µM	200 mg/kg	2500 mg/kg	–	–	–	–	–
N=C(N)c1ccc2cc(OC(=O)C3CC3)ccc2c1 [Compound No. 10, 6-amidino-2-naphthyl cyclopropanecarboxylate]	0.3 µM	100 µM	3 µM	0.2 µM	4 µM	100%	92%	18%	0%	2 µM	–	–	–	–	–	–	–
N=C(N)c1ccc2cc(OC(=O)[C@H]3CC[C@H](CNC(=O)OCc4ccccc4)CC3)ccc2c1 [compound 19, 6-amidino-2-naphtyl trans-4-benzyloxycarbonylaminomethylcyclohexanecarboxylate]	0.4 µM	6 µM	30 µM	0.4 µM	0.8 µM	55%	88%	25%	6%	1 µM	–	–	–	–	–	–	–

— US4496584A, “Amidine derivatives with anti-complement activity” (Torii & Co. Ltd., priority 1981, dated 1985)
